Laboratory results published in patent US12421254B2, “KRAS modulators and uses thereof” (Quanta Therapeutics, Inc., priority 2023, dated 2025).
pIC50: −log10 of the molar value. Where two headings read alike, the source gives them in different places.

Legend:
KRAS G12V/RAF1 = biological target: T1, KRAS G12V/RAF1 (Homo sapiens, UniProt P01116, G12V); assay: Protein-protein interaction (PPI) HTRF assay KRAS G12V/RAF1; assay type: binding; details: Table 3
T1 construct: KRAS (1-169) proteins were expressed in BL21 (DE3)-CodonPlus E. coli; His6-MBP (N, cleaved yes)
T1 sequence (P01116 with tags, fused parts or gaps isoform P01116-2 G12V): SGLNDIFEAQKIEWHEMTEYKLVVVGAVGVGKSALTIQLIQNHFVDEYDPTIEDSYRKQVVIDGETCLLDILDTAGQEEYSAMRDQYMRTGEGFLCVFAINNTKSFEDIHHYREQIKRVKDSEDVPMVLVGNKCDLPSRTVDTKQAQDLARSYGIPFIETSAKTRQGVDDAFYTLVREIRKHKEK
Experimental: (§1) When RAS proteins are in the active GTP-bound conformation, they bind the effector protein RAF1 at the N-terminus Ras-binding domain (RBD, residues 52-131) (Tran, et al., 2021). Homogenous time resolved fluorescence (HTRF) was used to monitor the interaction between wt or mutant KRAS and RAF1 or wt NRAS and RAF1. Compounds were assayed in the presence of KRAS G12D/V and RAF1 versus wt KRAS to assess activity against mutant and w.t. KRAS. Similarly, compounds were then assayed in the presence of w.t. NRAS and RAF1 to assess RAS isoform selectivity. In all assay formats, His-tagged RAF1 protein was incubated with the HTRF donor, anti-6His Tb Cryptate gold (Cisbio 61DB10RDF), and biotinylated RAS proteins were incubated with the HTRF acceptor, streptavidin-d2 (CisBio 610SADLA). The intensity of the fluorescence signal emitted is proportional to binding between the two proteins. The donor solution was prepared by mixing 16 nM His-tagged RAF1 in protein dilution buffer with 1:100 anti-6His Tb cryptate in PPI-Terbium detection buffer. 16 nM biotinylated RAS protein was diluted into protein dilution buffer (50 mM Tris-HCl pH 7.5, 150 mM NaCl, 0.1 mM MgCl2, 1 mM TCEP, 0.005% Tween20) and mixed with 1:2000 Streptavidin-d2 diluted in PPI-Terbium detection buffer (CisBio 61DB10RDF). 50× compound in DMSO was mixed with 16 nM KRAS-acceptor solution and incubated for 30 minutes at room temperature. After compound pre-incubation with KRAS, the RAF1 donor solution was added to the KRAS-acceptor solution and incubated for 1 hour at room temperature. The fluorescence signal emitted was monitored at 665 nm and 615 nm using an Envision multimode plate reader. The HTRF ratio (665/615) was calculated and normalized to 0% inhibition in the absence of compound and 100% inhibition in the presence of untagged RAF1 protein. PPI KRAS G12D/RAF1, KRAS G12V/RAF1, w.t. KRAS/RAF1 and NRAS/RAF1 IC50 (uM) values of selected compounds are depicted in Table 3 and Table 4 with compounds having a value <0.1 uM as ++++; ≥0.1 uM to 1 uM as +++; ≥1 uM to 10 uM as ++; ≥10 uM to 100 uM as +; and ≥100 uM as NA.

KRAS G12D/RAF1 = biological target: T2, KRAS G12D/RAF1 (Homo sapiens, UniProt P01116, G12D); assay: Protein-protein interaction (PPI) HTRF assay KRAS G12D/RAF1; assay type: binding; details: Table 2
T2 construct: KRAS (1-169) proteins were expressed in BL21 (DE3)-CodonPlus E. coli; His6-MBP (N, cleaved yes)
T2 sequence (P01116 with tags, fused parts or gaps isoform P01116-2 G12D): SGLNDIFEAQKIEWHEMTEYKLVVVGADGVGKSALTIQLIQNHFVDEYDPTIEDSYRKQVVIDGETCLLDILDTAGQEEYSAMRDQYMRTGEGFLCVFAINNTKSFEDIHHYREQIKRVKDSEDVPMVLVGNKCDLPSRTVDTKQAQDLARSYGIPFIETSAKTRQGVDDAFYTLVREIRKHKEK
Experimental: as §1

w.t. KRAS/RAF1 = biological target: T3, w.t. KRAS/RAF1 (Homo sapiens, UniProt P01116); assay: Protein-protein interaction (PPI) HTRF assay w.t. KRAS/RAF1; assay type: binding; details: Table 3; wt KRAS/RAF1
T3 construct: KRAS (1-169) proteins were expressed in BL21 (DE3)-CodonPlus E. coli; His6-MBP (N, cleaved yes)
T3 sequence (P01116 with tags, fused parts or gaps isoform P01116-2): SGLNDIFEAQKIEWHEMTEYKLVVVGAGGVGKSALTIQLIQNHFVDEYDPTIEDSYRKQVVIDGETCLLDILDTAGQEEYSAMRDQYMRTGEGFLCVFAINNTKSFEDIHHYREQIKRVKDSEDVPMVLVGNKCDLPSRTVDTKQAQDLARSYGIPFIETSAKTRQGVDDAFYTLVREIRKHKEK
Experimental: as §1

[1] = test system: phospho-ERK in GP2D (KRAS-G12D) cells; assay: pERK In Cell Western (ICW) assay (Method B), GP2D; assay type: cell-based; details: GP2d, 3 h, Table 4
In short: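 Cells were seeded at 5,000/well (AGS) or 10,000/well (GP2D, SW620), grown overnight, then treated 3 h at 37 °C with a ½-log 9-point compound dilution. Fixed cells were stained for phospho-ERK with DRAQ5 as DNA counterstain; pERK/DRAQ5 ratio as percent of blank control gave IC50 by 4-parameter fit.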

[2] = biological target: GST-tagged KRAS-G12V (2-169) (Homo sapiens, UniProt P01116, G12V); assay: Nucleotide exchange assay (NEA), SOS-mediated, HTRF, KRAS G12V; assay type: biochemical; details: Table 4; IC50 extracted at 90 min; 80 nM SOS
Sequence of GST-tagged KRAS-G12V (2-169) (P01116 2-169 isoform P01116-2 G12V): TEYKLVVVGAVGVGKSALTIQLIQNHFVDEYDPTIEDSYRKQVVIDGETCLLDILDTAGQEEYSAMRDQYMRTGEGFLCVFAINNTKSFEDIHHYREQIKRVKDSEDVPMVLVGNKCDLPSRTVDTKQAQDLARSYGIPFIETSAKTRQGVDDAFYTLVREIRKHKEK
In short: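 GST-KRAS-G12V (2-169), 0.25 nM, pre-incubated 1 h at RT with compound, then SOS1cat (564-1049) 80 nM and GTP-DY-647P1 150 nM added in HEPES pH 7.3 buffer with MgCl2 and DTT. HTRF via anti-GST Tb cryptate read over 90 min; IC50 from 4-parameter fit at 90 min, blanked to no-SOS reactions.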

phospho-ERK in AGS cells = assay: pERK In Cell Western (ICW) assay (Method B), AGS; assay type: cell-based; details: Homo sapiens, Table 2, 3 hours
Experimental: pERK ICW is a high throughput screening assay to evaluate the cellular potency of mutant KRAS small molecule inhibitors. KRAS mutant cell lines AGS, GP2D (KRAS-G12D) as well as SW620 (KRAS-G12V) were purchased from ATCC and maintained respectively in RPMI/DMEM/RPMI medium supplemented with 10% fetal bovine serum.
Cells grown in exponential phase were trypsinized, resuspended in fresh media, and viable cells were counted using a cell counter with Trypan Blue (BioRad TC20). Cells were seeded into 384-well plate (Greiner 781091) at density of 5,000 cells/well for AGS and 10,000 cells/well for GP2D/SW620 and allowed to grow overnight in a 37° C. CO2 incubator. The next day, compounds were dispensed into wells with a ½ log, 9-point serial dilution using a Tecan D300e dispenser and incubated for 3 hours in a 37° C. CO2 incubator. Cells were then fixed with paraformaldehyde (Electron Microscopy Sciences, 15710, 4% final concentration) for 30 min, permeabilized with wash buffer (1×PBS+0.1% Triton X-100) for 30 min and blocked with Odyssey blocking buffer (Li—COR 927-70001) for 1 hour, all at room temperature (RT). Phospho-ERK antibody (CST 4370L) was diluted 1:500 in Odyssey T20 (PBS) antibody diluent (Li—COR 927-75001) and incubated with cells overnight at 4° C. The next day, plates were washed 5× with wash buffer, incubated with IRDye 800 CW, Goat anti-Rabbit secondary antibody (Li—COR 926-32211, 1:800) and DRAQ5 (CST 4084L, 1:5,000) diluted in Odyssey T20 (PBS) antibody diluent for 1 hour, washed 5×, and imaged on an Odyssey CLx imaging system.
For data analysis, signal intensities from 800 (phosphor-ERK) and 700 (DRAQ5) channels were extracted, and phospho-ERK signals were normalized to DRAQ5 signals for each well and percent of blank control values were computed. Data were then imported into Graphpad Prism to compute half-maximal inhibitory concentrations (IC50) using a 4-parameter variable slope model. Z-factor for each plate was computed from signals derived from wells treated with either DMSO or 5 μM of control compound. AGS pERK ICW (Method B) IC50 (uM) values of selected compounds are depicted in Table 2 with compounds having a value ≥0.001 uM to 0.01 uM as ++++; ≥0.01 uM to 0.1 uM as +++; ≥0.1 uM to 1 uM as ++; ≥1 uM to 10 uM as + and ≥10 uM as NA.

[3] = biological target: GST-tagged KRAS-G12D (2-169) (Homo sapiens, UniProt P01116, G12D); assay: Nucleotide exchange assay (NEA), SOS-mediated, HTRF, KRAS G12D; assay type: biochemical; details: IC50 extracted at 30 min, 20 nM SOScat; for IC50: Table 2, read-out: NEA-G12D (uM) IC50; for pIC50: Table 4, read-out: NEA G12D IC50
Sequence of GST-tagged KRAS-G12D (2-169) (P01116 2-169 isoform P01116-2 G12D): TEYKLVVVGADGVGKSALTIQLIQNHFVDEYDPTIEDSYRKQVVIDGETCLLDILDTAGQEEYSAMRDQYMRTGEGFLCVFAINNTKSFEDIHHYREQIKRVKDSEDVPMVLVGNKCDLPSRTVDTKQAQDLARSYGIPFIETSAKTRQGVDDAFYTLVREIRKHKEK
In short: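 Compound preincubated 1 h at RT with 0.25 nM GST-KRAS-G12D (2-169) and anti-GST Tb donor, then 20 nM SOS1cat (564-1049) and 150 nM GTP-DY-647P1 added; pH 7.3 HEPES buffer with MgCl2 and DTT. HTRF monitored at RT; % inhibition versus DMSO and no-SOS blank, 4-parameter IC50 taken at 30 min.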

Structure (SMILES) | IC50 (KRAS G12V/RAF1) [µM] | IC50 (KRAS G12D/RAF1) [µM] | IC50 (w.t. KRAS/RAF1) [µM] | pIC50 [1] | pIC50 [2] | IC50 (phospho-ERK in AGS cells) [µM] | IC50 [3] [µM] | pIC50 [3]
N#Cc1c(N)sc2c1C1(CC2)CN(c2nc(OC[C@@]34CCCN3C[C@H](F)C4)nc(N3CC[C@@H](O)[C@@H](O)C3)n2)C1 (racemic) [Compound 22, 2-amino-1′-[4-[rac-(3S,4R)-3,4-dihydroxy-1-piperidyl]-6-[[(2R,8S)-2-fluoro-1,2,3,5,6,7-hexahydropyrrolizin-8-yl]methoxy]-1,3,5-triazin-2-yl]spiro[5,6-dihydrocyclopenta[b]thiophene-4,3′-azetidine]-3-carbonitrile] | 10 to 100 | 1 to 10 | 1 to 10 | 4.70 to 6.00 | 7.00 to 8.00 | 1 to 10 | 0.01 to 0.1 | 7.00 to 8.00
N#Cc1c(N)sc2c1C1(CC2)CN(c2nc(OC[C@@]34CCCN3C[C@H](F)C4)nc(N3CCCC(C#N)CC3)n2)C1 (stereo partly drawn) [Compound 8, 2-amino-1′-[4-(4-cyanoazepan-1-yl)-6-[[(2R,8S)-2-fluoro-1,2,3,5,6,7-hexahydropyrrolizin-8-yl]methoxy]-1,3,5-triazin-2-yl]spiro[5,6-dihydrocyclopenta[b]thiophene-4,3′-azetidine]-3-carbonitrile] | 1 to 10 | 1 to 10 | 1 to 10 | – | – | – | 0.01 to 0.1 | –
CN(CC1(C#N)CC1)c1nc(OC[C@@]23CCCN2C[C@H](F)C3)nc(N2CC3(CCc4sc(N)c(C#N)c43)C2)n1 [Compound 15, 2-amino-1′-[4-[(1-cyanocyclopropyl)methyl-methyl-amino]-6-[[(2R,8S)-2-fluoro-1,2,3,5,6,7-hexahydropyrrolizin-8-yl]methoxy]-1,3,5-triazin-2-yl]spiro[5,6-dihydrocyclopenta[b]thiophene-4,3′-azetidine]-3-carbonitrile] | 1 to 10 | 1 to 10 | 1 to 10 | – | 7.00 to 8.00 | – | 0.1 to 1 | 6.00 to 7.00
N#Cc1c(N)sc2c1C1(CC2)CN(c2nc(OCC3(C#N)CC3)nc(OC[C@@]34CCCN3C[C@H](F)C4)n2)C1 [Compound 16, 2-amino-1′-[4-[(1-cyanocyclopropyl)methoxy]-6-[[(2R,8S)-2-fluoro-1,2,3,5,6,7-hexahydropyrrolizin-8-yl]methoxy]-1,3,5-triazin-2-yl]spiro[5,6-dihydrocyclopenta[b]thiophene-4,3′-azetidine]-3-carbonitrile] | 1 to 10 | 1 to 10 | 10 to 100 | 4.70 to 6.00 | 7.00 to 8.00 | 1 to 10 | 0.01 to 0.1 | 7.00 to 8.00
